Test results: ChEMBL document CHEMBL1131863, “Synthesis and antibacterial activity of HMR 3647 a new ketolide highly potent against erythromycin-resistant and susceptible pathogens” (1999)
Converted amounts (≈) assume the structure as drawn. The source made the active and inactive calls. The rule behind the calls is not given here.

Tests used:
Escherichia coli [1] = test: The compound was tested in vitro for antibacterial activity against Escherichia coli 250 UCS; format: functional
Staphylococcus aureus [2] = test: The compound was tested in vitro for antibacterial activity against erythromycin susceptible Staphylococcus aureus 011UC4; format: functional
Streptococcus pneumoniae [3] = test: The compound was tested in vitro for antibacterial activity against constitutively erythromycin resistant Streptococcus pneumoniae 030PW23c; format: functional
Streptococcus pyogenes [4] = test: The compound was tested in vitro for antibacterial activity against erythromycin susceptible Streptococcus pyogenes 02A1UC1; format: functional
Staphylococcus aureus [5] = test: The compound was tested in vitro for antibacterial activity against constitutively erythromycin resistant Staphylococcus aureus 011CB20.; format: functional
Haemophilus influenzae [6] = test: The compound was tested in vitro for antibacterial activity against Haemophilus influenza 351HT3; format: functional
Streptococcus pneumoniae [7] = test: The compound was tested in vitro for antibacterial activity against erythromycin susceptible Streptococcus pneumoniae 032UC1; format: functional
Streptococcus pneumoniae [8] = test: The compound was tested in vitro for antibacterial activity against constitutively erythromycin resistant Streptococcus pneumoniae 030SJ1; format: functional
Streptococcus pneumoniae [9] = test: The compound was tested in vitro for antibacterial activity against inducibly erythromycin resistant Streptococcus pneumoniae 030J5i; format: functional
Streptococcus pneumoniae [10] = test: The compound was tested in vitro for antibacterial activity against constitutively erythromycin resistant Streptococcus pneumoniae 030CR18c; format: functional
Staphylococcus aureus [11] = test: The compound was tested in vitro for antibacterial activity against inducibly erythromycin resistant Staphylococcus aureus 011GO25i; format: functional
Escherichia coli [12] = test: The compound was tested in vitro for antibacterial activity against Escherichia coli 250 UCS.; format: functional
Haemophilus influenzae [13] = test: The compound was tested in vitro for antibacterial activity against Haemophilus influenza 351HT3.; format: functional
Mus musculus [14] = test: The compound was tested in vivo for antibacterial activity against erythromycin susceptible Streptococcus pyogenes 02A1UC1 in mice after oral administration; format: functional
Staphylococcus aureus [15] = test: The compound was tested in vitro for antibacterial activity against inducibly erythromycin resistant Staphylococcus aureus 011GO25i.; format: functional
Streptococcus pneumoniae [16] = test: The compound was tested in vitro for antibacterial activity against erythromycin susceptible Streptococcus pneumoniae 032UC1.; format: functional
Streptococcus pneumoniae [17] = test: The compound was tested in vitro for antibacterial activity against constitutively erythromycin resistant Streptococcus pneumoniae 030CR18c.; format: functional
Staphylococcus aureus [18] = test: The compound was tested in vitro for antibacterial activity against erythromycin susceptible Staphylococcus aureus 011UC4.; format: functional
Mus musculus [19] = test: The compound was tested in vivo for antibacterial activity against erythromycin susceptible Staphylococcus aureus 011UC4 in mice after oral administration; format: functional
Mus musculus [20] = test: The compound was tested in vivo for antibacterial activity against AmpR beta(+) Haemophilus influenza 351RD7 in mice after oral administration; format: functional
Streptococcus pyogenes [21] = test: The compound was tested in vitro for antibacterial activity against erythromycin susceptible Streptococcus pyogenes 02A1UC1.; format: functional
Streptococcus pneumoniae [22] = test: The compound was tested in vitro for antibacterial activity against constitutively erythromycin resistant Streptococcus pneumoniae 030PW23c.; format: functional
Mus musculus [23] = test: The compound was tested in vivo for antibacterial activity against AmpR beta(-) Haemophilus influenza 351TO19 in mice after oral administration; format: functional
Mus musculus [24] = test: The compound was tested in vivo for antibacterial activity against constitutively erythromycin resistant Streptococcus pneumoniae 030SJ1 in mice after oral administration; format: functional
Mus musculus [25] = test: The compound was tested in vivo for antibacterial activity against constitutively erythromycin resistant Streptococcus pneumoniae 030SJ6 in mice after oral administration; format: functional
Mus musculus [26] = test: The compound was tested in vivo for antibacterial activity against inducibly erythromycin resistant Streptococcus pneumoniae 030RO1 in mice after oral administration; format: functional
Mus musculus [27] = test: The compound was tested in vivo for antibacterial activity against constitutively erythromycin resistant Streptococcus pneumoniae 030MV2 in mice after oral administration; format: functional
Mus musculus [28] = test: The compound was tested in vivo for antibacterial activity against erythromycin susceptible Streptococcus pneumoniae 032UC1 in mice after oral administration; format: functional
Streptococcus pneumoniae [29] = test: The compound was tested in vitro for antibacterial activity against constitutively erythromycin resistant Streptococcus pneumoniae 030SJ1.; format: functional
Mus musculus [30] = test: The compound was tested in vivo for antibacterial activity against constitutively erythromycin resistant Streptococcus pneumoniae 030Cr29 in mice after oral administration; format: functional
Mus musculus [31] = test: The compound was tested in vivo for antibacterial activity against Haemophilus influenza 351GR1 in mice after oral administration; format: functional
Streptococcus pneumoniae [32] = test: The compound was tested in vitro for antibacterial activity against inducibly erythromycin resistant Streptococcus pneumoniae 030J5i.; format: functional
Mus musculus [33] = test: The compound was tested in vivo for antibacterial activity against inducibly erythromycin resistant Staphylococcus aureus 011GO3 in mice after oral administration; format: functional
Haemophilus influenzae [34] = test: The compound was tested in vitro for antibacterial activity against 47 strains of Haemophilus influenza AmpS; Value is 1.2/5; format: functional, organism-based
Streptococcus sp. = test: The compound was tested in vitro for antibacterial activity against 31 strains of erythromycin resistant Streptococci; Value is 1.2/40; format: functional, organism-based
Streptococcus pneumoniae [35] = test: The compound was tested in vitro for antibacterial activity against 32 strains of inducibly erythromycin resistant Streptococcus pneumoniae Value is 40/40; format: functional, organism-based
Streptococcus pneumoniae [36] = test: The compound was tested in vitro for antibacterial activity against 53 strains of Streptococcus pneumoniae PenR Value is 0.3/40; format: functional, organism-based
Staphylococcus sp. = test: The compound was tested in vitro for antibacterial activity against 66 strains of inducibly erythromycin resistant Staphylococci; Value is 40/40; format: functional, organism-based
Staphylococcus aureus [37] = test: The compound was tested in vitro for antibacterial activity against constitutively erythromycin resistant Staphylococcus aureus 011CB20; format: functional
Haemophilus influenzae [38] = test: The compound was tested in vitro for antibacterial activity against 39 strains of Haemophilus influenza AmpR; Value is 2.5/10; format: functional, organism-based
Streptococcus pneumoniae [39] = test: The compound was tested in vitro for antibacterial activity against 40 strains of constitutively erythromycin resistant Streptococcus pneumoniae Value is 40/40; format: functional, organism-based

CC[C@H]1OC(=O)[C@H](C)C(=O)[C@H](C)[C@@H](O[C@@H]2O[C@H](C)C[C@H](N(C)C)[C@H]2OC(C)=O)[C@](C)(OC)C[C@@H](C)C(=O)/C(C)=C/[C@]1(C)OC(=O)n1ccnc1
MIC (Escherichia coli [1]): 20 mg/L (≈ 28.3 µM) | MIC (Staphylococcus aureus [2]): 0.08 mg/L (≈ 0.113 µM) | MIC (Streptococcus pneumoniae [3]): 10 mg/L (≈ 14.2 µM) | MIC (Streptococcus pyogenes [4]): 0.02 mg/L (≈ 0.0283 µM) | MIC (Staphylococcus aureus [5]): 40 mg/L (≈ 56.7 µM) | MIC (Haemophilus influenzae [6]): 2.5 mg/L (≈ 3.54 µM) | MIC (Streptococcus pneumoniae [7]): 0.02 mg/L (≈ 0.0283 µM) | MIC (Streptococcus pneumoniae [8]): 10 mg/L (≈ 14.2 µM) | MIC (Streptococcus pneumoniae [9]): 0.08 mg/L (≈ 0.113 µM) | MIC (Streptococcus pneumoniae [10]): 10 mg/L (≈ 14.2 µM) | MIC (Staphylococcus aureus [11]): 0.15 mg/L (≈ 0.213 µM)

CC[C@H]1OC(=O)[C@H](C)C(=O)[C@H](C)[C@@H](O[C@@H]2O[C@H](C)C[C@H](N(C)C)[C@H]2O)[C@](C)(OC)C[C@@H](C)C(=O)[C@H](C)[C@H]2N(CCCCn3cnc(-c4cccnc4)c3)C(=O)O[C@]12C [TELITHROMYCIN]
MIC (Escherichia coli [12]): 10 mg/L (≈ 12.3 µM) | MIC (Haemophilus influenzae [13]): 1.2 mg/L (≈ 1.48 µM) | ED50 (Mus musculus [14]): 16 mg/kg | MIC (Staphylococcus aureus [15]): 0.08 mg/L (≈ 0.0985 µM) | MIC (Streptococcus pneumoniae [16]): 0.02 mg/L (≈ 0.0246 µM) | MIC (Streptococcus pneumoniae [17]): 0.15 mg/L (≈ 0.185 µM) | MIC (Staphylococcus aureus [18]): 0.04 mg/L (≈ 0.0493 µM) | ED50 (Mus musculus [19]): 10 mg/kg | ED50 (Mus musculus [20]): 57 mg/kg | MIC (Staphylococcus aureus [5]): 40 mg/L (≈ 49.3 µM) | MIC (Streptococcus pyogenes [21]): 0.02 mg/L (≈ 0.0246 µM) | MIC (Streptococcus pneumoniae [22]): 0.08 mg/L (≈ 0.0985 µM) | ED50 (Mus musculus [23]): 40 mg/kg | ED50 (Mus musculus [24]): 15 mg/kg | ED50 (Mus musculus [25]): 6.5 mg/kg | ED50 (Mus musculus [26]): 4 mg/kg | ED50 (Mus musculus [27]): 4 mg/kg | ED50 (Mus musculus [28]): 1 mg/kg | MIC (Streptococcus pneumoniae [29]): 0.08 mg/L (≈ 0.0985 µM) | ED50 (Mus musculus [30]): 4.5 mg/kg | ED50 (Mus musculus [31]): 68 mg/kg | MIC (Streptococcus pneumoniae [32]): 0.02 mg/L (≈ 0.0246 µM)

CC[C@H]1OC(=O)[C@H](C)[C@@H](O[C@H]2C[C@@](C)(OC)[C@@H](O)[C@H](C)O2)[C@H](C)[C@@H](O[C@@H]2O[C@H](C)C[C@H](N(C)C)[C@H]2O)[C@](C)(OC)C[C@@H](C)C(=O)[C@H](C)[C@@H](O)[C@]1(C)O [CLARITHROMYCIN]
MIC (Escherichia coli [1]): 40 mg/L (≈ 53.5 µM) | MIC (Staphylococcus aureus [2]): 0.3 mg/L (≈ 0.401 µM) | ED50 (Mus musculus [14]): 16 mg/kg | ED50 (Mus musculus [33]): 55 mg/kg | MIC (Streptococcus pneumoniae [3]): 40 mg/L (≈ 53.5 µM) | MIC (Streptococcus pyogenes [4]): 0.08 mg/L (≈ 0.107 µM) | MIC50/MIC90 (Haemophilus influenzae [34]): Active | ED50 (Mus musculus [19]): 6 mg/kg | ED50 (Mus musculus [20]): 120 mg/kg | MIC50/MIC90 (Streptococcus sp.): Active | MIC50/MIC90 (Streptococcus pneumoniae [35]): Active | MIC50/MIC90 (Streptococcus pneumoniae [36]): Active | ED50 (Mus musculus [23]): > 300 mg/kg | ED50 (Mus musculus [24]): > 50 mg/kg | ED50 (Mus musculus [25]): > 50 mg/kg | MIC (Haemophilus influenzae [6]): 5 mg/L (≈ 6.68 µM) | MIC50/MIC90 (Staphylococcus sp.): Active | ED50 (Mus musculus [26]): > 50 mg/kg | ED50 (Mus musculus [27]): > 50 mg/kg | MIC (Streptococcus pneumoniae [7]): 0.04 mg/L (≈ 0.0535 µM) | MIC (Staphylococcus aureus [37]): 40 mg/L (≈ 53.5 µM) | ED50 (Mus musculus [28]): 7.5 mg/kg | ED50 (Mus musculus [30]): > 50 mg/kg | MIC (Streptococcus pneumoniae [8]): 40 mg/L (≈ 53.5 µM) | MIC50/MIC90 (Haemophilus influenzae [38]): Active | MIC (Streptococcus pneumoniae [9]): 40 mg/L (≈ 53.5 µM) | ED50 (Mus musculus [31]): 71 mg/kg | MIC (Streptococcus pneumoniae [10]): 40 mg/L (≈ 53.5 µM) | MIC50/MIC90 (Streptococcus pneumoniae [39]): Active | MIC (Staphylococcus aureus [11]): 40 mg/L (≈ 53.5 µM)

CC[C@H]1OC(=O)[C@H](C)C(=O)[C@H](C)[C@@H](O[C@@H]2O[C@H](C)C[C@H](N(C)C)[C@H]2O)[C@](C)(OC)C[C@@H](C)C(=O)[C@H](C)[C@H]2N(CCCCn3ccc4ccccc43)C(=O)O[C@]12C
MIC (Escherichia coli [12]): 10 mg/L (≈ 12.8 µM) | MIC (Haemophilus influenzae [13]): 0.6 mg/L (≈ 0.765 µM) | MIC (Staphylococcus aureus [15]): 0.08 mg/L (≈ 0.102 µM) | MIC (Streptococcus pneumoniae [16]): 0.02 mg/L (≈ 0.0255 µM) | MIC (Streptococcus pneumoniae [17]): 2.5 mg/L (≈ 3.19 µM) | MIC (Staphylococcus aureus [18]): 0.04 mg/L (≈ 0.051 µM) | MIC (Staphylococcus aureus [5]): 40 mg/L (≈ 51 µM) | MIC (Streptococcus pyogenes [21]): 0.02 mg/L (≈ 0.0255 µM) | MIC (Streptococcus pneumoniae [22]): 2.5 mg/L (≈ 3.19 µM) | MIC (Streptococcus pneumoniae [29]): 2.5 mg/L (≈ 3.19 µM) | MIC (Streptococcus pneumoniae [32]): 0.08 mg/L (≈ 0.102 µM)

CC[C@H]1OC(=O)[C@H](C)C(=O)[C@H](C)[C@@H](O[C@@H]2O[C@H](C)C[C@H](N(C)C)[C@H]2O)[C@](C)(OC)C[C@@H](C)C(=O)[C@H](C)[C@H]2N(CCCCn3cnc(-c4ccccc4)c3)C(=O)O[C@]12C
MIC (Escherichia coli [12]): 40 mg/L (≈ 49.3 µM) | MIC (Haemophilus influenzae [13]): 2.5 mg/L (≈ 3.08 µM) | MIC (Staphylococcus aureus [15]): 0.3 mg/L (≈ 0.37 µM) | MIC (Streptococcus pneumoniae [16]): 0.02 mg/L (≈ 0.0247 µM) | MIC (Streptococcus pneumoniae [17]): 1.2 mg/L (≈ 1.48 µM) | MIC (Staphylococcus aureus [18]): 0.08 mg/L (≈ 0.0986 µM) | MIC (Staphylococcus aureus [5]): 40 mg/L (≈ 49.3 µM) | MIC (Streptococcus pyogenes [21]): 0.02 mg/L (≈ 0.0247 µM) | MIC (Streptococcus pneumoniae [22]): 20 mg/L (≈ 24.7 µM) | MIC (Streptococcus pneumoniae [29]): 2.5 mg/L (≈ 3.08 µM) | MIC (Streptococcus pneumoniae [32]): 2.5 mg/L (≈ 3.08 µM)
